Assay results from article PMC7211198, “Phase 1b study of a small molecule antagonist of human chemokine (C-C motif) receptor 2 (PF-04136309) in combination with nab-paclitaxel/gemcitabine in first-line treatment of metastatic pancreatic ductal adenocarcinoma” (Investigational New Drugs, 2019).
Marks after values point to notes of the source that are not given here.

Assay: Safety and tolerability (TEAEs, SAEs, DLTs, RP2D) in phase Ib study
Assay type: in vivo, human
From the text: Safety assessments included collection of adverse events (AEs), serious AEs (SAEs), vital signs and physical examination, electrocardiogram (12-lead), laboratory assessments, including pregnancy test, and verification of concomitant treatments. A patient was considered as DLT-evaluable if the patient experienced a DLT or if otherwise, in the absence of a DLT, the patient received at least 85% of the planned doses of each study drug in the first 28-day cycle. DLTs were defined as any of the following events occurring in the first cycle of treatment (days 1 through 28) and attributed (i.e., judged to be at least possibly related) to the combination of PF-04136309 plus nab-paclitaxel/gemcitabine, where relationship with the combination could not be ruled out. DLTs were hematologic events of grade 4 neutropenia lasting >5 days; febrile neutropenia; grade ≥ 3 neutropenic infection; grade ≥ 3 thrombocytopenia with grade ≥ 2 bleeding; grade 4 thrombocytopenia; and nonhematologic events of grade 3 toxicities. Exceptions included nausea and vomiting responding to prophylaxis and/or treatment and lasting <7 days from each chemotherapy infusion period; diarrhea responding to treatment and lasting <7 days; grade 3 fatigue lasting <7 days; grade 3 QT interval corrected for heart rate prolongation (>500 msec) persisting after correction of any reversible causes; and/or grade 3 aspartate aminotransferase (AST) and/or alanine aminotransferase (ALT) increase lasting ≤7 days. All grade 4 toxicities and a delay of >2 weeks in receiving the next scheduled cycle due to persistent treatment-related toxicities were considered DLTs. AEs meeting DLT criteria in the dose-expansion phase included grade 3 events of diarrhea, hypokalemia, and dysesthesia and grade 4 hypoxia. […] AEs were graded according to the National Cancer Institute Common Terminology Criteria for Adverse Events, version 4.03.

[1] = 750 mg BID + nab-P/Gem, all-causality TEAE
[2] = 750 mg BID + nab-P/Gem, treatment-related SAE
[3] = 500-mg BID group (n = 17), n = 1, considered unrelated to study treatment
[4] = Total N = 21, treatment-related TEAE

O=C(NCC(=O)N1CC[C@H](N[C@H]2CC[C@@](O)(c3ccc(-c4ncccn4)cn3)CC2)C1)c1cccc(C(F)(F)F)c1 [PF-04136309]
Chills, Grade 5 [1]: 0 n (%) | Chills, Total [1]: 2 (50.0) n (%) | Constipation, Grade 1 [1]: 2 (50.0) n (%) | Constipation, Grade 2 [1]: 1 (25.0) n (%) | Constipation, Grade 3 [1]: 0 n (%) | Constipation, Grade 4 [1]: 0 n (%) | Constipation, Grade 5 [1]: 0 n (%) | Constipation, Total [1]: 3 (75.0) n (%) | Fatigue, Grade 1 [1]: 3 (75.0) n (%) | Fatigue, Grade 2 [1]: 1 (25.0) n (%) | Fatigue, Grade 3 [1]: 0 n (%) | Fatigue, Grade 4 [1]: 0 n (%) | Fatigue, Grade 5 [1]: 0 n (%) | Fatigue, Total [1]: 4 (100.0) n (%) | Insomnia, Grade 1 [1]: 1 (25.0) n (%) | Insomnia, Grade 2 [1]: 1 (25.0) n (%) | Insomnia, Grade 3 [1]: 0 n (%) | Insomnia, Grade 4 [1]: 0 n (%) | Insomnia, Grade 5 [1]: 0 n (%) | Insomnia, Total [1]: 2 (50.0) n (%) | Leukopenia, Grade 1 [1]: 0 n (%) | Leukopenia, Grade 2 [1]: 0 n (%) | Leukopenia, Grade 3 [1]: 3 (75.0) n (%) | Leukopenia, Grade 4 [1]: 0 n (%) | Leukopenia, Grade 5 [1]: 0 n (%) | Leukopenia, Total [1]: 3 (75.0) n (%) | Malaise, Grade 1 [1]: 2 (50.0) n (%) | Malaise, Grade 2 [1]: 0 n (%) | Malaise, Grade 3 [1]: 0 n (%) | Malaise, Grade 4 [1]: 0 n (%) | Malaise, Grade 5 [1]: 0 n (%) | Malaise, Total [1]: 2 (50.0) n (%) | Nausea, Grade 1 [1]: 3 (75.0) n (%) | Nausea, Grade 2 [1]: 0 n (%) | Nausea, Grade 3 [1]: 1 (25.0) n (%) | Nausea, Grade 4 [1]: 0 n (%) | Nausea, Grade 5 [1]: 0 n (%) | Nausea, Total [1]: 4 (100.0) n (%) | Neutropenia, Grade 1 [1]: 0 n (%) | Neutropenia, Grade 2 [1]: 0 n (%) | Neutropenia, Grade 3 [1]: 3 (75.0) n (%) | Neutropenia, Grade 4 [1]: 0 n (%) | Neutropenia, Grade 5 [1]: 0 n (%) | Neutropenia, Total [1]: 3 (75.0) n (%) | Pain in extremity, Grade 1 [1]: 1 (25.0) n (%) | Pain in extremity, Grade 2 [1]: 1 (25.0) n (%) | Pain in extremity, Grade 3 [1]: 0 n (%) | Pain in extremity, Grade 4 [1]: 0 n (%) | Pain in extremity, Grade 5 [1]: 0 n (%) | Pain in extremity, Total [1]: 2 (50.0) n (%) | Pyrexia, Grade 1 [1]: 1 (25.0) n (%) | Pyrexia, Grade 2 [1]: 1 (25.0) n (%) | Pyrexia, Grade 3 [1]: 0 n (%) | Pyrexia, Grade 4 [1]: 0 n (%) | Pyrexia, Grade 5 [1]: 0 n (%) | Pyrexia, Total [1]: 2 (50.0) n (%) | Rash, Grade 1 [1]: 2 (50.0) n (%) | Rash, Grade 2 [1]: 1 (25.0) n (%) | Rash, Grade 3 [1]: 0 n (%) | Rash, Grade 4 [1]: 0 n (%) | Rash, Grade 5 [1]: 0 n (%) | Rash, Total [1]: 3 (75.0) n (%) | Thrombocytopenia, Grade 1 [1]: 1 (25.0) n (%) | Thrombocytopenia, Grade 2 [1]: 1 (25.0) n (%) | Thrombocytopenia, Grade 3 [1]: 0 n (%) | Thrombocytopenia, Grade 4 [1]: 0 n (%) | Thrombocytopenia, Grade 5 [1]: 0 n (%) | Thrombocytopenia, Total [1]: 2 (50.0) n (%) | Vomiting, Grade 1 [1]: 2 (50.0) n (%) | Vomiting, Grade 2 [1]: 1 (25.0) n (%) | Vomiting, Grade 3 [1]: 0 n (%) | Vomiting, Grade 4 [1]: 0 n (%) | Vomiting, Grade 5 [1]: 0 n (%) | Vomiting, Total [1]: 3 (75.0) n (%) | Any SAE, Grade 1 [2]: 0 n (%) | Any SAE, Grade 2 [2]: 1 (25.0) n (%) | Any SAE, Grade 3 [2]: 1 (25.0) n (%) | Any SAE, Grade 4 [2]: 0 n (%) | Any SAE, Grade 5 [2]: 0 n (%) | Any SAE, Total [2]: 2 (50.0) n (%) | Cognitive disorder, Grade 1 [2]: 0 n (%) | Cognitive disorder, Grade 2 [2]: 0 n (%) | Cognitive disorder, Grade 3 [2]: 1 (25.0) n (%) | Cognitive disorder, Grade 4 [2]: 0 n (%) | Cognitive disorder, Grade 5 [2]: 0 n (%) | Cognitive disorder, Total [2]: 1 (25.0) n (%) | Rash, Grade 1 [2]: 0 n (%) | Rash, Grade 2 [2]: 1 (25.0) n (%) | Rash, Grade 3 [2]: 0 n (%) | Rash, Grade 4 [2]: 0 n (%) | Rash, Grade 5 [2]: 0 n (%) | Rash, Total [2]: 1 (25.0) n (%) | Patients who experienced SAEs (14 of the 21 treated patients): 66.7% | Grade 4 TEAE: decreased neutrophil count, patients [3]: 5.9% | Grade 4 TEAE: decreased white blood cell count, patients [3]: 5.9% | PF-04136309-related TEAE: rash, patients (500-mg BID group (n = 17), n = 6): 35.3% | PF-04136309-related TEAE: rash, patients (750-mg BID group (n = 4), n = 3): 75.0% | DLT events (750-mg BID group, one of four patients, cycle 1 day 7, resolved same day): grade 3 cognitive disorder | ALT increase, grade ≥3 [4]: 4 (19.0) n (%) | AST increase, grade ≥3 [4]: 4 (19.0) n (%) | Anemia, grade ≥3 [4]: 4 (19.0) n (%) | Fatigue, grade ≥3 [4]: 4 (19.0) n (%) | Leukopenia, grade ≥3 [4]: 5 (23.8) n (%) | Lymphopenia, grade ≥3 [4]: 5 (23.8) n (%) | Neutropenia, grade ≥3 [4]: 5 (23.8) n (%) | DLT (Total n = 21, first cycle, 5 DLTs in four patients): 4 (19.0)^c n (%) | Deaths (all in 500-mg BID group, 10 of 11 due to disease under study, one due to grade 5 pneumonia): Eleven | Changes in laboratory tests consistent with a relationship to study drug (all treated patients): no clinically significant changes | Changes in vital signs data consistent with a relationship to study drug (all treated patients): no clinically significant changes | Recommended phase II dose (RP2D) (in combination with nab-paclitaxel/gemcitabine): 500 mg BID | Late-onset DLT (in vivo): Grade 3 pneumonitis | Incidence of pulmonary toxicity (n = 21, combination with nab-paclitaxel/gemcitabine): 24% | Patients who experienced treatment-related SAEs (seven of 21, attributed to at least one of PF-04136309, nab-paclitaxel, gemcitabine): 33.3%
